Data taken from patent US6455270B1, “Method for inhibiting eukaryotic protein kinases” (TerraGen Discovery Inc., priority 1997, dated 2002).

What was measured:
Streptomyces 85E = experiment: Inhibition of sporulation in Streptomyces 85E (filter paper disc on freshly seeded plate); assay type: cell-based, Streptomyces WEC478-85E; conditions: for zone of inhibition at 10 µg/disc: Streptomyces, 85E, 10 ug compound applied to disc; for Growth of the vegetative mycelia: disc assay, 10 ug
Source text: adding the material to be tested for kinase inhibitory activity to a growing culture of a prokaryotic organism such as a streptomycete;
allowing the culture to grow for a period of time in the presence of the material; and
observing the culture for altered development relative to development of the prokaryotic organism grown in the absence of the material. Observation of altered development is indicative that the material has activity as an inhibitor of post-translational protein phosphorylation. In particular, the material to be tested can be added to a growing culture of the prokaryotic organism by placing a carrier disk bearing the material on a freshly seeded plate. Inhibition of the development of aerial mycelia and spore formation is an indicator that the material has activity as an inhibitor of post-translational protein phosphorylation.
We have used a wild strain of Streptomyces isolated from soil and designated Streptomyces WEC478-85E (hereinafter strain 85E) to test lichen extracts. Strain 85E has been deposited with the American Type, Culture Collection in accordance with the provisions of the Budapest treaty and has been assigned Accession Number ATCC 55824.
In the test assay, the lichen-extract to be tested was applied to a filter paper disk and then placed on a plate which has been freshly seeded with the strain 85E test organism. The test organism is then allowed to grow in the presence of the filter paper disk for a period of 24 to 36 hours, after which the organism is evaluated for altered development in the zone around the disk. An observation of an inhibition of the formation of aerial mycelia and spores, without inhibition of the growth of vegetative mycelia is particularly indicative of the presence of an inhibitor of post-translational phosphorylation.

Human c-Src kinase = Human c-Src kinase (Homo sapiens, UniProt P12931); experiment: Human c-Src kinase inhibition (PTK reaction); assay type: biochemical; conditions: 0.2 unit c-Src
Description: (§1) I. Human c-Src kinase incubated 30 min. at 30° C. with 5 ug usnic acid or-vulpinic acid: II. Human c-Src incubated 5 min. at 30° C. with 5 ug usnic acid or 5 ug vulpinic acid: 5 ug in the 50 ul PTK reaction mixture represents a concentration of about 300 uM for both of these compounds and twice that in the 25 ul PKC reactions. Thus, inhibition was detected for this particular protein tyrosine kinase and only minimally inhibitory for protein kinase C. Other protein kinases may show greater or lesser levels of inhibition.

Protein Kinase C = Protein Kinase C inhibition (PKC reaction); assay type: biochemical; conditions: 10 ng PKC, incubated 30 min. at 30° C. with 5 ug compound (about 600 uM in 25 ul)
Description: as §1, with “III. Protein Kinase C” for “I. Human c-Src kinase”, “30” for “30 min. at 30° C. with 5 ug usnic acid or-vulpinic acid: II. Human c-Src incubated 5”

Chain of Human c-Src kinase (P12931 whole entry): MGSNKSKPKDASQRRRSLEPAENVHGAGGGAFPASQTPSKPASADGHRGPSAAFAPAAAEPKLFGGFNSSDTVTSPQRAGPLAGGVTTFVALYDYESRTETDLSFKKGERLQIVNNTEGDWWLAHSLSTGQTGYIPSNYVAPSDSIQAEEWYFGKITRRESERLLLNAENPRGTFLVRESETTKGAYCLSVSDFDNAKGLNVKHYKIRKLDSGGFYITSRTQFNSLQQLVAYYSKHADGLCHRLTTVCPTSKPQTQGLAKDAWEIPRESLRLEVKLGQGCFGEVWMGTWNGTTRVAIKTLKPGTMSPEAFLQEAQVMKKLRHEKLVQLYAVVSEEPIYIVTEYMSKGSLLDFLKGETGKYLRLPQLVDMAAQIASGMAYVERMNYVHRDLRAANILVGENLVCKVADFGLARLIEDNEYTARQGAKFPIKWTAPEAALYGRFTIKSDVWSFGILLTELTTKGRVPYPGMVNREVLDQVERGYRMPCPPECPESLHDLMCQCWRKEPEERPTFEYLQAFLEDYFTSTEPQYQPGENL

SMILES	zone of inhibition at 10 µg/disc (Streptomyces 85E) [mm]	Growth of the vegetative mycelia (Streptomyces 85E)	c-Src kinase reaction reading (control reaction 0.208) (Human c-Src kinase; incubated 5 min. at 30° C. with 5 ug compound (about 300 uM in 50 ul))	c-Src kinase reaction reading (control reaction 0.562) (Human c-Src kinase; incubated 30 min. at 30° C. with 5 ug compound (about 300 uM in 50 ul))	Protein Kinase C reaction reading (control reaction 0.289) (Protein Kinase C)
CC(=O)c1c(O)c(C)c(O)c2c1OC1=CC(=O)C(C(C)=O)C(=O)C12C (stereo not shown) [usnic acid]	15	not inhibited			
COC(=O)/C(=C1/OC(=O)C(c2ccccc2)=C1O)c1ccccc1 [vulpinic acid]	15	not inhibited	0.180	0.483	0.230
